The test system of data set [1] is HCV-Luc (HCV JFH-1 strain, genotype 2a). In words: microbe, parasite or virus in culture. Conditions: Hepatitis C virus, GETYPE2A, values in nM. Type of data set: cell-based.
The target of data set [2] is H1-histamine receptor (H1HR) (Homo sapiens, UniProt P35367). The experiment in a line: H1HR inhibition assay. Type of data set: cell-based. Particulars: read-out: H1HR inhibition.
For data set [3] the following is noted: mouse, i.p., 24 h, previously reported, cited from earlier work.
Data set [4] relates to hepatitis B virus, HCV replicon, herpes simplex virus-1, human cytomegalovirus, vaccinia virus, dengue virus, influenza A (H1N1) virus, respiratory syncytial …. Format: cell-based.

The structures appear in SMILES notation. Where two headings read alike, the source gives them in different places. Some results are limits rather than exact numbers.

Sequence of H1-histamine receptor (H1HR) (P35367 whole entry): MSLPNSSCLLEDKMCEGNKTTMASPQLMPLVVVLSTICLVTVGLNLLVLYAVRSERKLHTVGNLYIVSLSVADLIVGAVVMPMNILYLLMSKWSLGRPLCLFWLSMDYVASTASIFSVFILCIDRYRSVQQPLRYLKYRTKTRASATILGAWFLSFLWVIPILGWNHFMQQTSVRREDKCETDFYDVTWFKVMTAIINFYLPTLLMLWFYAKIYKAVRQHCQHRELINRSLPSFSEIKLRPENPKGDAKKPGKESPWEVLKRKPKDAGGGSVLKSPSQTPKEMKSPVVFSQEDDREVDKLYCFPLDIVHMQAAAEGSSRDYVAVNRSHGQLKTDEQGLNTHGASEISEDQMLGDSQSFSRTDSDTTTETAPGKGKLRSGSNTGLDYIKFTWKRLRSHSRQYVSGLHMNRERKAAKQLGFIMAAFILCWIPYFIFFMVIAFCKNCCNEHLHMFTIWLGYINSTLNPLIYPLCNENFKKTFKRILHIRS

Usually EC50 stands for the concentration that produces a half-maximal response. Lower therefore signals a more potent agent. Compound `NCCOCCN1CCN(C(c2ccccc2)c2ccc(Cl)cc2)CC1` (racemic) [Rac-23, 2-(2-(4-((4-Chlorophenyl) (Phenyl)methyl)piperazin-1-yl)ethoxy)ethanamine] registered an EC50 in data set [1] of less than 8 nM. The term inhibition denotes the relative decrease from the control value, in per cent. Take `Clc1ccc([C@H](c2ccccc2)N2CCNCC2)cc1` [(S)-1]: in data set [2], the inhibition at 0.01 µM was roughly 10%. Moreover, the “T1/2 Liver” value in data set [3] (10 mg/kg) was 4.7 h. As to `CN1CCN([C@@H](c2ccccc2)c2ccc(Cl)cc2)CC1` [(S)-2, reference compound], the “T1/2 Liver” value in data set [3] (50 mg/kg) is reported as 1.99 h. As to `CCN1CCN([C@@H](c2ccccc2)c2ccc(Cl)cc2)CC1` [(S)-10, (S)-1-((4-Chlorophenyl) (phenyl)methyl)-4-ethylpiperazine], the “antiviral activity in the NIAID antiviral screen” value in data set [4] is reported as “Little or no antiviral activity was detected”.

`CN1CCN(C(c2ccc(Cl)cc2)c2ccc(Cl)cc2)CC1` [Compound 30, 1-(Bis(4-chlorophenyl)methyl)-4-methylpiperazine] displayed an ALT levels in the data set “Alanine transaminase” (mouse serum, 10 mg/kg i.p., most time points except t = 2 and 4 h) of no more than 80 U/L. Moreover, the hepatotoxicity entry in the data set “Alanine transaminase” (mouse, single 10 mg/kg i.p., ALT also elevated with vehicle only) was “no clear hepatotoxicity was detected”.
